{"source": "patent US20170071976A1", "about": "“PHARMACEUTICAL SOLUTION HAVING ANTI-TUMOR EFFECT-ENHANCING AND TOXICITY-REDUCING EFFECT, AND PHARMACEUTICAL COMPOSITION COMPRISING SAME” (priority 2014, published 2017)", "format_in_all_cases": "cell-based", "key": {"[1]": {"system": "human lung cancer A549 cells", "test": "Cell invasion assayed by Transwell", "conditions": "invaded cells, control 183.0 ± 12.3", "protocol": "Cell lines: human colon cancer HCT-116 cells and human lung cancer A549 cells were provided by NANJING […] BIOTECH. CO., LTD. […] The cell suspension was centrifuged at 800 to 1,000 rpm for 5 min, and the supernatant was discarded; 1.4. A complete culture medium was added to the cell pellet which was well mixed by gentle pipetting, the cell suspension was transferred to a culture flask, and the cells were cultured by supplementing culture medium. 1. […] After incubation of cells with the test drugs for 24 hours, serum was removed, and the cells were incubated under starvation with an incomplete culture medium for 24 hours; 3. Matrigel was placed at 4° C. in advance to thaw overnight; 4. Thawed Matrigel was 1:1 diluted with the incomplete culture medium, 30 μl diluted Matrigel was added to the upper compartment of Transwell and incubated at 37° C. for 120 min to gel the Matrigel; 5. Cells from different groups were digested, counted, and then adjusted to a density of 1×10^5 cells/ml with the incomplete culture medium, 100 μl cell suspension was added to the upper compartment (small compartment) of Transwell, and 500 μl medium containing 20% FBS was added to the lower compartment of Transwell; 6. A 24-well cell culture plate was placed in an incubator at 37° C. and 5% CO2 to culture the cells for 24 hours; 7. […] The assay was repeated one more time."}, "[2]": {"system": "human colon cancer HCT-116 cells", "test": "Cell invasion assayed by Transwell", "conditions": "for Number of cells (HCT-116): invaded cells, control 65.0 ± 12.0; for Number of cells: invaded HCT-116 cells, control 76.0 ± 4.6", "protocol": "Inhibition of invasion of human colon cancer HCT-116 cells and human lung cancer A549 cells by deuterium oxide in combination with 5-fluorouracil or gemcitabine (by the Transwell method)\n(§1) 1.1. Warm water at 37° C. to 40° C. was prepared, a cryogenic vial was taken out of liquid nitrogen and immediately put into the 37° C.-40° C. warm water, followed by vigorous shaking until the cryogenic liquid was completely thawed; 1.2. The suspension of cryogenic cells was transferred to a centrifugal tube, 5 ml culture medium was added thereto, and the cells were well mixed in the medium by gentle pipetting; 1.3. The cell suspension was centrifuged at 800 to 1,000 rpm for 5 min, and the supernatant was discarded; 1.4. A complete culture medium was added to the cell pellet which was well mixed by gentle pipetting, the cell suspension was transferred to a culture flask, and the cells were cultured by supplementing culture medium.\n1. […] After incubation of cells with the test drugs for 24 hours, serum was removed, and the cells were incubated under starvation with an incomplete culture medium for 24 hours; 3. Matrigel was placed at 4° C. in advance to thaw overnight; 4. Thawed Matrigel was 1:1 diluted with the incomplete culture medium, 30 μl diluted Matrigel was added to the upper compartment of Transwell and incubated at 37° C. for 120 min to gel the Matrigel; 5. Cells from different groups were digested, counted, and then adjusted to a density of 1×10^5 cells/ml with the incomplete culture medium, 100 μl cell suspension was added to the upper compartment (small compartment) of Transwell, and 500 μl medium containing 20% FBS was added to the lower compartment of Transwell; 6. A 24-well cell culture plate was placed in an incubator at 37° C. and 5% CO2 to culture the cells for 24 hours; 7. Cell counting: cells in the Matrigel and the upper compartment were wiped off with a cotton swab, the Transwell was removed, followed by inversion and air drying, 500 μl medium containing 0.1% crystal violet was added to the 24-well plate, the small compartment was placed in the medium to allow the membrane to be immersed in the dye, removed after holding at 37° C. for 30 min, washed with PBS, and photographed in 3 fields along the diameter (200× magnification) for cell counting. 8. The assay was repeated one more time."}, "[3]": {"system": "human colon cancer HCT-116 cells", "test": "Cell cycle by PI single staining (flow cytometry)", "conditions": "72 hours", "protocol": "Effect of deuterium oxide on the cell cycle of human lung cancer A549 cells and human colon cancer HCT-116 cells\nA KGA511 Cell cycle assay kit was provided by NANJING KEYGEN BIOTECH. CO., LTD.\nThe flow cytometer was FACS Calibur provided by Becton-Dickinson, US.\nas §1, with “vial of cells” for “vial”\n2.1. The original culture medium was removed by pipetting when the cell coverage reached 80% to 90% in the culture bottle; 2.2. A suitable amount of trypsin (0.25%) was added to digest for 1 to 2 min; 2.3. When all the cells became round, an equal volume of culture medium containing serum was added to cease the digestion; 2.4. The cells were blown by pipetting to suspend, then drawn into a 15 ml centrifugal tube, and centrifuged at 1000 rpm for 5 min; 2.5. The supernatant was discarded, and the cells were re-suspended in 1 to 2 ml culture medium and transferred to a culture bottle for further culturing.\n1. Cells growing in the exponential phase were digested and inoculated to a 6-well plate; on the next day, after the cells attached to the wall, cell culture media containing corresponding test drugs were added according to different groups, and a negative control group was also set; 2. After treatment with test drugs for 72 hours, cells were digested with 0.25% pancreatin (EDTA-free) and collected; 3. The cells were washed with PBS once (centrifuged at 2,000 rpm for 5 min), and 5×10^5 cells were collected; 4. The prepared suspension of individual cells was fixed with 70% (v/v) ethanol for 2 hours (or overnight), and stored at 4° C.; before staining, the fixing solution was washed away with PBS (if necessary, the cell suspension was filtered once through a 200-mesh screen); 5. 100 μl RNase A was added, and the cells were water-bathed at 37° C. for 30 min; 6. 400 μl PI was added and well mixed for staining, and the cells were kept at 4° C. in darkness for 30 min; 7. In a detection apparatus, red fluorescence with an excitation wavelength of 488 nm was recorded."}}, "data": [{"compound": "[2H]O[2H]", "note": "[Deuterium oxide]", "values": [{"measurement": "Number of cells (A549)", "setting": "[1]; deuterium oxide 1.8% (v/v)", "value": "74.3 ± 11.0"}, {"measurement": "Number of cells (A549)", "setting": "[1]; deuterium oxide 7.5% (v/v)", "value": "43.0 ± 4.4"}, {"measurement": "Number of cells (A549)", "setting": "[1]; deuterium oxide 15% (v/v)", "value": "29.3 ± 1.5"}, {"measurement": "Number of cells (A549)", "setting": "[1]; deuterium oxide 30% (v/v)", "value": "22.0 ± 1.7"}, {"measurement": "Number of cells (A549)", "setting": "[1]; deuterium oxide […] (v/v)", "value": "54.0 ± 2.0"}, {"measurement": "Number of cells (HCT-116)", "setting": "[2]; deuterium oxide 1.8% (v/v)", "value": "29.3 ± 5.1"}, {"measurement": "Number of cells (HCT-116)", "setting": "[2]; deuterium oxide 7.5% (v/v)", "value": "3.7 ± 0.6"}, {"measurement": "Number of cells (HCT-116)", "setting": "[2]; deuterium oxide 15% (v/v)", "value": "3.0 ± 1.0"}, {"measurement": "Number of cells (HCT-116)", "setting": "[2]; deuterium oxide 30% (v/v)", "value": "1.70 ± 0.6"}, {"measurement": "Number of cells (HCT-116)", "setting": "[2]; deuterium oxide […] (v/v)", "value": "16.3 ± 3.2"}, {"measurement": "G2 Phase", "setting": "[3]; deuterium oxide 30% v/v, control 8.06 ± 1.89", "value": "4.21 ± 0.95", "unit": "%"}, {"measurement": "S Phase", "setting": "[3]; deuterium oxide 30% v/v, control 9.40 ± 1.83", "value": "6.61 ± 1.41", "unit": "%"}, {"measurement": "G1 Phase", "setting": "[3]; deuterium oxide 30% v/v, control 82.53 ± 1.76", "value": "89.19 ± 3.81", "unit": "%"}]}, {"compound": "O=c1[nH]cc(F)c(=O)[nH]1", "note": "[Example 5-FU, 5-fluorouracil]", "values": [{"measurement": "Number of cells", "setting": "[2]; 5-FU 0.195 ug/ml in NS", "value": "66.0 ± 2.6"}, {"measurement": "Number of cells", "setting": "[2]; 5-FU 0.39 ug/ml in NS", "value": "47.3 ± 4.0"}, {"measurement": "Number of cells", "setting": "[2]; 5-FU 0.78 ug/ml in NS", "value": "31.3 ± 1.5"}, {"measurement": "Number of cells", "setting": "[2]; 5-FU 1.56 ug/ml in NS", "value": "23.0 ± 4.6"}, {"measurement": "Number of cells", "setting": "[2]; 5-FU 3.125 ug/ml in NS", "value": "12.0 ± 2.0"}, {"measurement": "Number of cells", "setting": "[2]; 5-FU 6.25 ug/ml in NS", "value": "10.7 ± 1.5"}, {"measurement": "Number of cells", "setting": "[2]; 5-FU 12.5 ug/ml in NS", "value": "6.3 ± 0.6"}, {"measurement": "G1 Phase", "setting": "[3]; 5-FU 12.5 ug/ml in NS", "value": "32.69 ± 8.66", "unit": "%"}, {"measurement": "G2 Phase", "setting": "[3]; 5-FU 12.5 ug/ml in NS", "value": "41.24 ± 2.97", "unit": "%"}, {"measurement": "S Phase", "setting": "[3]; 5-FU 12.5 ug/ml in NS", "value": "26.07 ± 11.32", "unit": "%"}]}]}
